# Measured values reported in ChEMBL document CHEMBL1201862, “PubChem BioAssay data set” (2004).
# The source made the active and inactive calls.
# Experiments:
# Leucine aminopeptidase = target: T1, Leucine aminopeptidase (Plasmodium falciparum 3D7, UniProt Q8IL11); experiment: P. falciparum M17LAP inhibitors, primary screen, biochemical, fluorogenic H-Leu-NHMec substrate, 1536-well (AID 1619); format: functional
# T1 sequence (Q8IL11 whole entry): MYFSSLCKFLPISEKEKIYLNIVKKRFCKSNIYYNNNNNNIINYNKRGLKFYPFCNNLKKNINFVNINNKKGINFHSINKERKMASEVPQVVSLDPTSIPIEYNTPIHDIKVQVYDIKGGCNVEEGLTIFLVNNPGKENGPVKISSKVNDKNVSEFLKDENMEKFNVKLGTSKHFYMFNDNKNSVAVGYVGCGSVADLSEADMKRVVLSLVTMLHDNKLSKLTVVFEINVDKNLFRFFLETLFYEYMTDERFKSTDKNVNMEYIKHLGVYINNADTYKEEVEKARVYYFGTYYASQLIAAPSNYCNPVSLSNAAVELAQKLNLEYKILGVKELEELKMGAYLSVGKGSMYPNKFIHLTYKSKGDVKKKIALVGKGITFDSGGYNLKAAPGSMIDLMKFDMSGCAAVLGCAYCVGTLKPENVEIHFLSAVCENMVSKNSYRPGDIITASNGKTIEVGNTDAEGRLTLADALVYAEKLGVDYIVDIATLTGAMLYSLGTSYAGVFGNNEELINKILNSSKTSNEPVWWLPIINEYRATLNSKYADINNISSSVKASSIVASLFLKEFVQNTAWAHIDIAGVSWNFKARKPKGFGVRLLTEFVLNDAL
# [1] = target: Glyceraldehyde-3-phosphate dehydrogenase (Homo sapiens, UniProt P04406)
# Genome polyprotein = Genome polyprotein (dengue virus type 2, UniProt P29990); experiment: flavivirus cap methylation enzyme inhibition – biochemical, confirmation dose response, primary screen (AID 588689); format: functional
# CHO = CHO cell viability loss, potency – luminescence, cytotoxicity control for TLR9-MyD88 binding inhibitor project, dose response (AID 588339); format: functional, cell-based, hamster; settings: Cricetulus griseus;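 further: CHO cells stably coexpressing TLR9 and MyD88 fusions from primary screen; compound exposure lasted 48 hours before viability readout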
# Beta Lactamase = Beta Lactamase (Pseudomonas aeruginosa, UniProt Q932Y6); experiment: BLA reporter interference, concentration series – BLA reporter cells, FRET fluorescence, artefact control for TLR9-MyD88 binding inhibitor project, dose response (AID 588341); format: cell-based;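 further: cell based assay in CHO-K1 cells stably expressing beta-lactamase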
# [2] = Trypanosoma cruzi growth suppression in host cells – NIH3T3 host cells, beta-gal luminescence, confirmation (AID 2044); format: functional, cell-based;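 further: intracellular parasites grown in NIH/3T3 mouse fibroblasts as host cells; luminescent beta-galactosidase reporter signal from transgenic T. cruzi replicating inside host cells; inhibitors lower the luminescence signal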
# [3] = NIH3T3 cell viability loss – ATP luminescence, mouse fibroblasts, counter-screen, dose response (AID 2010); format: functional, cell-based;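 further: cells exposed to compound for about 90 hours before reading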
# [4] = THP-1 cell cytotoxicity, dose response, cytotoxicity control for non-replicating M. tuberculosis project (AID 489025); format: functional
# cells = format: functional
# [5] = intracellular Trypanosoma cruzi inhibitors in host cells – cell-based, plate reader, cherry-pick samples, set 3, dose response (AID 651818); format: functional;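 further: compounds incubated with infected cells for about four days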
# Estrogen receptor beta = Estrogen receptor beta (Homo sapiens, UniProt Q92731);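 further: recombinant ER-beta bound to coactivator SRC1 peptide in presence of estradiol agonist; inhibitors block coactivator peptide binding and lower the FRET signal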
# [6] = target: T2, Replicative DNA helicase DnaB (Mycobacterium tuberculosis, UniProt P9WMR3); experiment: DnaB intein splicing inhibitors, dose response, biochemical, cell-free fluorescence (AID 449749); format: functional
# T2 sequence (P9WMR3 whole entry): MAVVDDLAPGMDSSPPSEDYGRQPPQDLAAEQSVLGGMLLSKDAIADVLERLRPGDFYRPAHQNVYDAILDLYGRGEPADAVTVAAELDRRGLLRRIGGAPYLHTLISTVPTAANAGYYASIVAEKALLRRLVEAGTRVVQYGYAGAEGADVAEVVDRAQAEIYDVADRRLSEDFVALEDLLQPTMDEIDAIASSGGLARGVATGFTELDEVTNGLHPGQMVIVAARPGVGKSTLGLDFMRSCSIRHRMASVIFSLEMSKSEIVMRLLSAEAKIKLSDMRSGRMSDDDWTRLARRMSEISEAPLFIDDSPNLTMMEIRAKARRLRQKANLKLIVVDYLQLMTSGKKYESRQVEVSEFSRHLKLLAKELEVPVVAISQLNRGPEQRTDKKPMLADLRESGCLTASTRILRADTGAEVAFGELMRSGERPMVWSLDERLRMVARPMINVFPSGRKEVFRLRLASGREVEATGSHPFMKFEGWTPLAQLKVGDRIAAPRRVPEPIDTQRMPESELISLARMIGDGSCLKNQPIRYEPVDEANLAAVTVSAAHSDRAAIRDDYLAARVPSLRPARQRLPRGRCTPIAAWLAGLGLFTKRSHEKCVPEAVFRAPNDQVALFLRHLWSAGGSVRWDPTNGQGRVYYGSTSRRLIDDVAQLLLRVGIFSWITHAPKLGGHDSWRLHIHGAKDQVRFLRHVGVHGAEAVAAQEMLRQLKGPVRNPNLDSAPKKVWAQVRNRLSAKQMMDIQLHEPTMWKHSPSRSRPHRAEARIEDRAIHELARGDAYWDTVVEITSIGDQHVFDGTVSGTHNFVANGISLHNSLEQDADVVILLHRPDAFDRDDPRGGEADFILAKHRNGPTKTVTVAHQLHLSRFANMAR
# Protein RecA = target: T3, Protein RecA (Mycobacterium tuberculosis, UniProt P9WHJ3); experiment: Fluorescence Cell-Free Homogeneous Dose Retest to Identify Inhibitors of RecA-Intein Splicing Activity. [Related pubchem assays (depositor defined):AID2097, AID2223, AID489010, AID492950]; format: functional
# T3 sequence (P9WHJ3 whole entry): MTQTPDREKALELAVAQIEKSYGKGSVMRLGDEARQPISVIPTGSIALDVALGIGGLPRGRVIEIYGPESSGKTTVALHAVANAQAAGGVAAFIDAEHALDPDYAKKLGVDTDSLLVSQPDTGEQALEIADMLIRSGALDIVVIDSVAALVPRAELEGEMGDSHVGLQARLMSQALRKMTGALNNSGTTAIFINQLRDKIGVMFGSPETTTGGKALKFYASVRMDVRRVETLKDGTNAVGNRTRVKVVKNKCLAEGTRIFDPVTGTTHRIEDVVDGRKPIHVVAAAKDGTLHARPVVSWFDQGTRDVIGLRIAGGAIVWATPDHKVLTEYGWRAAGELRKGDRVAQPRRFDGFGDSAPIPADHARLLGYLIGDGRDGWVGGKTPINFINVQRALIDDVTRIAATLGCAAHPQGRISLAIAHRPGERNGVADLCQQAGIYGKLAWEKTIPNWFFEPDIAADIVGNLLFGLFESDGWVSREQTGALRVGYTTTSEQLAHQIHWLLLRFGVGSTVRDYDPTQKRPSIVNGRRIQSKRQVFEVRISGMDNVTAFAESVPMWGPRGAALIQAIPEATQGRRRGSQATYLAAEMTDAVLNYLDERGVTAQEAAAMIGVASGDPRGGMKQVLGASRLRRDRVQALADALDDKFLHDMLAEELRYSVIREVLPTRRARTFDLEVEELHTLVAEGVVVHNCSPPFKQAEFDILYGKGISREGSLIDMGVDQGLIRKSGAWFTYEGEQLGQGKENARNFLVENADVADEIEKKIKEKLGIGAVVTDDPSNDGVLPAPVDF
# Cytochrome P450 2C19 = Cytochrome P450 2C19 (Homo sapiens, UniProt P33261); experiment: Cytochrome panel assay with activity outcomes. Panel member name: p450-cyp2c19 Compounds with AC50 equal or less than 10 uM are considered active; format: functional
# Cytochrome P450 3A4 = Cytochrome P450 3A4 (Homo sapiens, UniProt P08684);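 further: CYP3A4 tested as one member of a cytochrome P450 panel screen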
# Cytochrome P450 2C9 = Cytochrome P450 2C9 (Homo sapiens, UniProt P11712)
# Chain of Cytochrome P450 2C9 (P11712 whole entry): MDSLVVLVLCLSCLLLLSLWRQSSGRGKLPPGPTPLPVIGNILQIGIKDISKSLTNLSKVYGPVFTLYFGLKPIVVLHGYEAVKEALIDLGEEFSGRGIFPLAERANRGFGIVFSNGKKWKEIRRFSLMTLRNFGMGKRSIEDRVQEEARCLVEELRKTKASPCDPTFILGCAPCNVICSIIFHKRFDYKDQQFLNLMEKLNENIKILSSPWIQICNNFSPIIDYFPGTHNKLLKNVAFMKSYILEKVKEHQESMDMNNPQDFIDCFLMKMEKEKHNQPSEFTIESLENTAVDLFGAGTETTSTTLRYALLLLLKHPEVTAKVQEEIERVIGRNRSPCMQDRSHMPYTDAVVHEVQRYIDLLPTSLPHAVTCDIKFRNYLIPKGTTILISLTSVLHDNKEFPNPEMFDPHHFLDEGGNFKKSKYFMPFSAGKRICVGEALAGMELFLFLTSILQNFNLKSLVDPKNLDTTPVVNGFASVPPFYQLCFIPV
# Chain of Genome polyprotein (P29990 2492-3391 limits assumed): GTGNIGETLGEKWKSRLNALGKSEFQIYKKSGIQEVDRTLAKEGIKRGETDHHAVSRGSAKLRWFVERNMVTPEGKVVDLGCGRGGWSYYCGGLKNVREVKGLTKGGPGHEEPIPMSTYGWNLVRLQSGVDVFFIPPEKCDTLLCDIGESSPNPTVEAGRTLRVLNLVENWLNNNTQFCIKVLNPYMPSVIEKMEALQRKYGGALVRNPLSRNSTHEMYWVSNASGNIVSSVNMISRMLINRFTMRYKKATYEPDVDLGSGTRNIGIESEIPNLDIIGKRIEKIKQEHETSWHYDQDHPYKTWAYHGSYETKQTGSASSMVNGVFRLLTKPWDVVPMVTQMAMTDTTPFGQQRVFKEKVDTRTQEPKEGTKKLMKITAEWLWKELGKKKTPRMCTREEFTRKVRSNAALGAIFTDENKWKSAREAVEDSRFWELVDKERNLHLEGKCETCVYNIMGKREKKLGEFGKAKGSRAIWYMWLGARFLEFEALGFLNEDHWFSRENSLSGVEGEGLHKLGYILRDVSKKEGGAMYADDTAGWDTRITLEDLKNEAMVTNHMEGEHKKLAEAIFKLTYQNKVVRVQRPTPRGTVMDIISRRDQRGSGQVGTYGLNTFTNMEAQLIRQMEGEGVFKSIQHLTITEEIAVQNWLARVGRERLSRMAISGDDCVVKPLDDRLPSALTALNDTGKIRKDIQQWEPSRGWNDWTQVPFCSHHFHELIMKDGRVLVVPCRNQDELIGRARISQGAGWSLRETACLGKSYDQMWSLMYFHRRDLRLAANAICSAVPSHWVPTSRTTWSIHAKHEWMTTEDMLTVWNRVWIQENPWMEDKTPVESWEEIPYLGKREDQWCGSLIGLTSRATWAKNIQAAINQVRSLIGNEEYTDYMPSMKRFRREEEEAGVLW
# Chain of Beta Lactamase (Q932Y6 whole entry): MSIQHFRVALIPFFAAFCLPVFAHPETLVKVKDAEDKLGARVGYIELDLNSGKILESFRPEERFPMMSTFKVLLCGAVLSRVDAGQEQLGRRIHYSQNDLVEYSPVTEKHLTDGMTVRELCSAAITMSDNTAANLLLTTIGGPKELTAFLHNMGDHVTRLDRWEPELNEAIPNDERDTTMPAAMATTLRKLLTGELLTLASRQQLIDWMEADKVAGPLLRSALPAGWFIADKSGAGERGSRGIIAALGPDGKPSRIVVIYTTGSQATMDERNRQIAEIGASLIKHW
# Chain of Estrogen receptor beta (Q92731 whole entry): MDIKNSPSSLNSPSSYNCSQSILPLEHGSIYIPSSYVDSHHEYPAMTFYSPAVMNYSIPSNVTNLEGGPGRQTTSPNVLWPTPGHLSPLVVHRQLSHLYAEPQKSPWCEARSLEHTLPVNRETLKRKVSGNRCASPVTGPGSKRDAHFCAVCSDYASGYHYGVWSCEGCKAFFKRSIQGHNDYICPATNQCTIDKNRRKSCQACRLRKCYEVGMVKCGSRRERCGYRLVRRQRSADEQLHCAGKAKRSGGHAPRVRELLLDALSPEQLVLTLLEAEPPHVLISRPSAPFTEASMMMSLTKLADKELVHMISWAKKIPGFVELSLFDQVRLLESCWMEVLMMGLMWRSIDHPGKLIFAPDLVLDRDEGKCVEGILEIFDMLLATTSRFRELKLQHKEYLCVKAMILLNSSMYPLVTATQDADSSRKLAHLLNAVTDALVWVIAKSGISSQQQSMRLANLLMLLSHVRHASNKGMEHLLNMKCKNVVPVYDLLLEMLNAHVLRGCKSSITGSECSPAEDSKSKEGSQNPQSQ
# Chain of Cytochrome P450 3A4 (P08684 whole entry): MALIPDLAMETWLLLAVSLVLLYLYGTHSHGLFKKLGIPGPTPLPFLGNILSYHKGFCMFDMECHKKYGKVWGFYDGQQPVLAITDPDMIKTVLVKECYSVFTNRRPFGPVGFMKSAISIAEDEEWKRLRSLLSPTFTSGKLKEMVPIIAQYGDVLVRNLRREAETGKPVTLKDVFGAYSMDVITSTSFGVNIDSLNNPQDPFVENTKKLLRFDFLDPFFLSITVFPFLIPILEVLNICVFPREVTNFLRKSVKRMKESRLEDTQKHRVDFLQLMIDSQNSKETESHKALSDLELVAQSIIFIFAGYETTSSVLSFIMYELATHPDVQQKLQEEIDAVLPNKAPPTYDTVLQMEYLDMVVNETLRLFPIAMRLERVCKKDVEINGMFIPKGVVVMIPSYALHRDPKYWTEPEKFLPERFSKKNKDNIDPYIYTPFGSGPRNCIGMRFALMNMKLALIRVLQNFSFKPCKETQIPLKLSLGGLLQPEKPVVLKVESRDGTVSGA
# Chain of Cytochrome P450 2C19 (P33261 whole entry): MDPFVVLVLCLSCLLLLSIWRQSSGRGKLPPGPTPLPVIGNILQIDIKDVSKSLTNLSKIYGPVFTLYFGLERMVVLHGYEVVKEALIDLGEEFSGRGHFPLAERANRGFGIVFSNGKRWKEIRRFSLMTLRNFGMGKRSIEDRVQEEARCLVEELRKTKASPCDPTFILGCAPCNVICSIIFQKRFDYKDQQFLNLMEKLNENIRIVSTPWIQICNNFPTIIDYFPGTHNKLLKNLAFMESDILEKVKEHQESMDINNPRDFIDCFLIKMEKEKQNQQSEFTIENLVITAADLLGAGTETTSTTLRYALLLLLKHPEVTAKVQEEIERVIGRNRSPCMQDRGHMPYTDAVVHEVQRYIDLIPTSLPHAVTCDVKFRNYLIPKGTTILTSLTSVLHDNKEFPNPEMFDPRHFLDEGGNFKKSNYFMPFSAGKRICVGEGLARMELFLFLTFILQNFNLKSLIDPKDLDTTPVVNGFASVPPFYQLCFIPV
# Chain of Glyceraldehyde-3-phosphate dehydrogenase (P04406 whole entry): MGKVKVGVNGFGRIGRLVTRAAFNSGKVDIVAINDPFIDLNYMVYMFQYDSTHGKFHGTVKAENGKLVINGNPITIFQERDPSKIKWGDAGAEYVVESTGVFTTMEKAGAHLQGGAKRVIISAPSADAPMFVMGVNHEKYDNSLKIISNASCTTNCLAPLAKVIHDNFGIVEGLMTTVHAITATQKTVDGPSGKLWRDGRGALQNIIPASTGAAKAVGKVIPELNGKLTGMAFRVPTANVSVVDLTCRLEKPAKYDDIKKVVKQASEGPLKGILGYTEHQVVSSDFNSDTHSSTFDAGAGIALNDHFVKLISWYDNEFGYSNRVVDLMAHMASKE
smiles,measurement,setting,value
O=C(NNC(=O)C1CC2CCC1C2)c1sc2ccccc2c1Cl (stereo not drawn),IC50,Leucine aminopeptidase,68.1 µM (active)
O=C1C(Cl)=C(N2CCN(CCO)CC2)C(=O)N1c1cccc(C(F)(F)F)c1,IC50,[1],> 50 µM (inconclusive)
CC1(C(=O)O)CC(C)(C(=O)O)CC(C)(C(=O)O)C1 (stereo not drawn),IC50,Leucine aminopeptidase,58.7 µM (active)
O=C(O)c1cc([N+](=O)[O-])c(Nc2cccc3ccccc23)c([N+](=O)[O-])c1,IC50,Genome polyprotein,64.7 µM (active)
COc1ccc(OC)c(C=Cc2ccc([N+](=O)[O-])cc2)c1,IC50,CHO,> 49.7 µM (inactive)
same,IC50,Beta Lactamase,8.19 µM (active)
Cc1cc(C)n(CC(=O)N/N=C/c2ccc([N+](=O)[O-])s2)n1,EC50,[2],0.845 µM (active)
same,EC50,[3],> 60 µM (not active)
same,CC50,[4],> 40 µM (active)
same,IC50,cells,48.5 µM (active)
C[C@H]1CN([C@@H](C)CO)C(=O)c2cccc(NC(=O)Nc3cccc4ccccc34)c2O[C@H]1CN(C)Cc1ccc(C(F)(F)F)cc1,AC50,[5],2.85 µM (active)
C[C@H](CO)N1C[C@H](C)[C@@H](CN(C)CC2CC2)Oc2c(NC(=O)CCCCCC(=O)Nc3ccccc3N)cccc2C1=O,AC50,[5],2.88 µM (active)
C[C@@H]1CN([C@H](C)CO)C(=O)c2cccc(NC(=O)CCCCCC(=O)Nc3ccccc3N)c2O[C@@H]1CN(C)S(=O)(=O)c1ccc(F)cc1,AC50,[5],3.66 µM (active)
C[C@H](CO)N1C[C@H](C)[C@H](CN(C)Cc2ccc(Cl)c(Cl)c2)Oc2c(NC(=O)Nc3ccc4c(c3)OCO4)cccc2C1=O,AC50,[5],2.61 µM (active)
C[C@@H]1CCCCO[C@@H](CN(C)CC2CCCCC2)[C@@H](C)CN([C@H](C)CO)C(=O)c2cc(NC(=O)Nc3ccc(C(F)(F)F)cc3)ccc2O1,AC50,[5],1.63 µM (active)
Cc1[nH]n(-c2ccccc2)c(=O)c1Sc1ccc(Cl)cc1,IC50,Leucine aminopeptidase,37.4 µM (active)
same,IC50,Estrogen receptor beta,> 50 µM (not active)
same,AC50,[6],12.2 µM (active)
same,EC50,Protein RecA,4.68 µM (active)
COc1ccc(-n2c(SC)nc(O)c(Cc3ccccc3)c2=O)cc1,IC50,Leucine aminopeptidase,46 µM (active)
same,AC50,Cytochrome P450 2C19,7.94 µM (inconclusive)
same,AC50,Cytochrome P450 3A4,22.4 µM (inconclusive)
same,AC50,Cytochrome P450 2C9,12.6 µM (inconclusive)
